In ChEMBL document CHEMBL1833803, “Discovery of 1-amino-5H-pyrido[4,3-b]indol-4-carboxamide inhibitors of Janus kinase 2 (JAK2) for the treatment of myeloproliferative disorders” (J Med Chem, 2011):
pIC50: −log10 of the molar value.

Experiments:
[1] = Selectivity ratio of IC50 for JAK3 to IC50 for JAK2
[2] = biological target: Voltage-gated inwardly rectifying potassium channel KCNH2 (Homo sapiens, UniProt Q12809); assay: Inhibition of human hERG
CYP3A4 = CYP3A4 (Homo sapiens, UniProt P08684); assay: Inhibition of CYP3A4 at 10 uM; format: ADME
[3] = Metabolic stability in rat hepatocytes assessed as half life; format: ADME, cell-based, Liver, Hepatocyte
[4] = biological target: T1, Tyrosine-protein kinase JAK2 (Homo sapiens, UniProt O60674); assay: Inhibition of JAK2-mediated STAT5 phosphorylation in human HEL 92.1.7 irf1-bla cells; format: cell-based
[5] = biological target: T1, Tyrosine-protein kinase JAK2; assay: Inhibition of JAK2 using biotin-EQEDEPEGDYFEWLE- NH2 as substrate
[6] = biological target: T2, Tyrosine-protein kinase JAK3 (Homo sapiens, UniProt P52333); assay: Inhibition of JAK3 using biotin-EQEDEPEGDYFEWLE- NH2 as substrate
T2 sequence (P52333 whole entry): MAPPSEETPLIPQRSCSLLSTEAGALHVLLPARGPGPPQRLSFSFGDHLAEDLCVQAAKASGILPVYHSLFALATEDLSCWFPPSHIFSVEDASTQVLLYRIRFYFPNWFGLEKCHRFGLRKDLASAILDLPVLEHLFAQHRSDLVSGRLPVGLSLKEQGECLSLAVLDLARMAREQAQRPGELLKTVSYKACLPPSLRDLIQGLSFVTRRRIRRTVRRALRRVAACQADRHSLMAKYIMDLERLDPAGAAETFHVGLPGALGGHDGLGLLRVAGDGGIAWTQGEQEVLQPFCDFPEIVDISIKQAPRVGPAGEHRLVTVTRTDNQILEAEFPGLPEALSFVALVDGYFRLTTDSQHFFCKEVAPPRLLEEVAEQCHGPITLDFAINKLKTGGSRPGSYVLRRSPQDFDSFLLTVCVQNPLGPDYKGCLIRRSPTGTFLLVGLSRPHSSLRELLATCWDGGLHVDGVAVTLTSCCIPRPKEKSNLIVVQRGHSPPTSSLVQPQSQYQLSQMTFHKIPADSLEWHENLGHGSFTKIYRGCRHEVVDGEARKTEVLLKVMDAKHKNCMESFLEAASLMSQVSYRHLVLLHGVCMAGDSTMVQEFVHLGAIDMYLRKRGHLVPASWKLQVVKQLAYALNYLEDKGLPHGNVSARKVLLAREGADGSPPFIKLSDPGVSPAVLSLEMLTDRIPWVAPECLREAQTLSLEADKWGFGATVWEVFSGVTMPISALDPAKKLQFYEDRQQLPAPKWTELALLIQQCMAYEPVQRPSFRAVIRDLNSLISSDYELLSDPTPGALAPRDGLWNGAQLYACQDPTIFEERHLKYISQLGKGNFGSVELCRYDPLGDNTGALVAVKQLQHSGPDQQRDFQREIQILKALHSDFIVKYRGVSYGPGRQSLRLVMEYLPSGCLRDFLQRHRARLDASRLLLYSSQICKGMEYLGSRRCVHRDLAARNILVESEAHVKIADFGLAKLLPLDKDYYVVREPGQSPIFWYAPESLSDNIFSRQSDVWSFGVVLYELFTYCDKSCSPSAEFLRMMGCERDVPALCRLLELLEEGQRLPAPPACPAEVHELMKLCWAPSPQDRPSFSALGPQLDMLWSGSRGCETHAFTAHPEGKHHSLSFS

[7] = biological target: T3, Tyrosine-protein kinase JAK2 (Homo sapiens, UniProt O60674, V617F); assay: Inhibition of JAK2 V617F mutant
[8] = biological target: T3, Tyrosine-protein kinase JAK2; assay: Inhibition of JAK2 V617F mutant-mediated STAT5 phosphorylation in mouse BAF3 cells; format: cell-based
[9] = Half life in rat at 1 mg/kg, iv; format: ADME, organism-based; set-up: dose 1 mg/kg, route intravenous; settings: in vivo
[10] = Clearance in rat at 1 mg/kg, iv; format: ADME, organism-based; set-up: dose 1 mg/kg, route intravenous; settings: in vivo
CYP2C9 = CYP2C9 (Homo sapiens, UniProt P11712); assay: Inhibition of CYP2C9 at 10 uM; format: ADME
[11] = biological target: Potassium voltage-gated channel subfamily E member 1 (Homo sapiens, UniProt P15382); assay: Inhibition of Iks channel
[12] = biological target: Voltage-dependent L-type calcium channel subunit alpha-1C (Rattus norvegicus, UniProt P22002); assay: Inhibition of rat CaV1.2
[13] = biological target: Sodium channel protein type 5 subunit alpha (Homo sapiens, UniProt Q14524); assay: Inhibition of NaV1.5
Cytochrome P450 3A4 = Cytochrome P450 3A4 (Homo sapiens, UniProt P08684); assay: Inhibition of CYP3A4; format: ADME
Cytochrome P450 2C9 = Cytochrome P450 2C9 (Homo sapiens, UniProt P11712); assay: Inhibition of CYP2C9; format: ADME
Cytochrome P450 2D6 = Cytochrome P450 2D6 (Homo sapiens, UniProt P10635); assay: Inhibition of CYP2D6; format: ADME
Rattus norvegicus [14] = assay: Dose normalized AUC in rat at 1 mg/kg, iv; format: ADME, organism-based; set-up: dose 1 mg/kg, route intravenous; settings: in vivo
[15] = Plasma clearance in rat at 1 mg/kg, iv; format: ADME, organism-based; set-up: dose 1 mg/kg, route intravenous
[16] = Volume of distribution at steady state in rat at 1 mg/kg, iv; format: ADME, organism-based; set-up: dose 1 mg/kg, route intravenous; settings: in vivo, read-out: Vdss
Canis familiaris [17] = assay: Dose normalized AUC in dog at 0.5 mg/kg, iv; format: ADME, organism-based, Canis lupus familiaris; set-up: dose 0.5 mg/kg, route intravenous; settings: in vivo
[18] = Plasma clearance in dog at 0.5 mg/kg, iv; format: ADME, organism-based, Canis lupus familiaris; set-up: dose 0.5 mg/kg, route intravenous
[19] = Volume of distribution at steady state in dog at 0.5 mg/kg, iv; format: ADME, organism-based, Canis lupus familiaris; set-up: dose 0.5 mg/kg, route intravenous; settings: in vivo, read-out: Vdss
[20] = Half life in dog at 0.5 mg/kg, iv; format: ADME, organism-based, Canis lupus familiaris; set-up: dose 0.5 mg/kg, route intravenous; settings: in vivo
Rhesus monkey [21] = assay: Dose normalized AUC in monkey at 0.5 mg/kg, iv; format: ADME, organism-based, Macaca mulatta; set-up: dose 0.5 mg/kg, route intravenous; settings: in vivo
[22] = Plasma clearance in monkey at 0.5 mg/kg, iv; format: ADME, organism-based, Macaca mulatta; set-up: dose 0.5 mg/kg, route intravenous; settings: rhesus monkey
[23] = Volume of distribution at steady state in monkey at 0.5 mg/kg, iv; format: ADME, organism-based, Macaca mulatta; set-up: dose 0.5 mg/kg, route intravenous; settings: rhesus monkey, in vivo, read-out: Vdss
[24] = Half life in monkey at 0.5 mg/kg, iv; format: ADME, organism-based, Macaca mulatta; set-up: dose 0.5 mg/kg, route intravenous; settings: rhesus monkey, in vivo
Rattus norvegicus [25] = assay: Dose normalized AUC in rat at 2 mg/kg, po; format: ADME, organism-based; set-up: dose 2 mg/kg, route oral; settings: in vivo
[26] = Cmax in rat at 2 mg/kg, po; format: ADME, organism-based; set-up: dose 2 mg/kg, route oral; settings: in vivo
[27] = Tmax in rat at 2 mg/kg, po; format: ADME, organism-based; set-up: dose 2 mg/kg, route oral; settings: in vivo
[28] = Oral bioavailability in rat at 2 mg/kg; format: ADME, organism-based; settings: in vivo
Canis familiaris [29] = assay: Dose normalized AUC in dog at 1 mg/kg, po; format: ADME, organism-based, Canis lupus familiaris; set-up: dose 1 mg/kg, route oral; settings: in vivo
[30] = Cmax in dog at 1 mg/kg, po; format: ADME, organism-based, Canis lupus familiaris; set-up: dose 1 mg/kg, route oral; settings: in vivo
[31] = Tmax in dog at 1 mg/kg, po; format: ADME, organism-based, Canis lupus familiaris; set-up: dose 1 mg/kg, route oral; settings: in vivo
[32] = Oral bioavailability in dog at 1 mg/kg; format: ADME, organism-based, Canis lupus familiaris; settings: in vivo
Rhesus monkey [33] = assay: Dose normalized AUC in monkey at 1 mg/kg, po; format: ADME, organism-based, Macaca mulatta; set-up: dose 1 mg/kg, route oral; settings: in vivo
[34] = Cmax in monkey at 1 mg/kg, po; format: ADME, organism-based, Macaca mulatta; set-up: dose 1 mg/kg, route oral; settings: rhesus monkey, in vivo
[35] = Tmax in monkey at 1 mg/kg, po; format: ADME, organism-based, Macaca mulatta; set-up: dose 1 mg/kg, route oral; settings: rhesus monkey, in vivo
[36] = Oral bioavailability in monkey at 1 mg/kg; format: ADME, organism-based, Macaca mulatta; settings: rhesus monkey, in vivo
Mus musculus [37] = assay: Reduction in pSTAT5 concentration in po dosed darbepoetin-stimulated C57B1/6 mouse
Mus musculus [38] = species on record: Mus musculus; assay: Prevention of darbepoetin-induced elevation of hematocrit in C57/BL6 mouse PV model; format: functional, organism-based; settings: C57Bl/6
Mus musculus [39] = species on record: Mus musculus; assay: Prevention of darbepoetin-induced increase in spleen weight in C57/BL6 mouse PV model; format: functional, organism-based; settings: C57Bl/6
[40] = Bioavailability in rat at 1 mg/kg, iv; format: ADME, organism-based; settings: in vivo
[41] = biological target: Tyrosine-protein kinase JAK1 (Homo sapiens, UniProt P23458); assay: Inhibition of JAK1
[42] = biological target: Non-receptor tyrosine-protein kinase TYK2 (Homo sapiens, UniProt P29597); assay: Inhibition of TYK2
[43] = biological target: T1, Tyrosine-protein kinase JAK2; assay: Inhibition of JAK2
[44] = biological target: T2, Tyrosine-protein kinase JAK3; assay: Inhibition of JAK3
[45] = Plasma clearance in rat at 2 mg/kg, iv and 4 mg/kg, po; format: ADME, organism-based
[46] = Oral bioavailability in rat at 4 mg/kg; format: ADME, organism-based; settings: in vivo
[47] = Lipophilicity, log D of the compound at pH 7.4; format: physicochemical; settings: buffer
[48] = Aqueous solubility of the compound; format: physicochemical; settings: buffer

Chain of CYP3A4 (P08684 whole entry): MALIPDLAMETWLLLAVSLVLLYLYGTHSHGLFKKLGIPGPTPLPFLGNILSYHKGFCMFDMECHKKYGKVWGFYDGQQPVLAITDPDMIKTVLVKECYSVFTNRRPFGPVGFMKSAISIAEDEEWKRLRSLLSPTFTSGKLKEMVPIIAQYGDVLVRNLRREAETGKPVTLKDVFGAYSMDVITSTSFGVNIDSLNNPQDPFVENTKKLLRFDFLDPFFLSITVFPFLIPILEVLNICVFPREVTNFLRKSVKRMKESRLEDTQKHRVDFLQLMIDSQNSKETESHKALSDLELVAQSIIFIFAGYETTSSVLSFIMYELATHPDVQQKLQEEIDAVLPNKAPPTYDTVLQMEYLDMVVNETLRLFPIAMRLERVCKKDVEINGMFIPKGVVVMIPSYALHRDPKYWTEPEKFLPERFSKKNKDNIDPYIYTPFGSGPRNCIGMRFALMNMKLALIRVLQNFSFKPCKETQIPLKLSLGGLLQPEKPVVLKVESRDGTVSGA
T1 sequence (O60674 whole entry): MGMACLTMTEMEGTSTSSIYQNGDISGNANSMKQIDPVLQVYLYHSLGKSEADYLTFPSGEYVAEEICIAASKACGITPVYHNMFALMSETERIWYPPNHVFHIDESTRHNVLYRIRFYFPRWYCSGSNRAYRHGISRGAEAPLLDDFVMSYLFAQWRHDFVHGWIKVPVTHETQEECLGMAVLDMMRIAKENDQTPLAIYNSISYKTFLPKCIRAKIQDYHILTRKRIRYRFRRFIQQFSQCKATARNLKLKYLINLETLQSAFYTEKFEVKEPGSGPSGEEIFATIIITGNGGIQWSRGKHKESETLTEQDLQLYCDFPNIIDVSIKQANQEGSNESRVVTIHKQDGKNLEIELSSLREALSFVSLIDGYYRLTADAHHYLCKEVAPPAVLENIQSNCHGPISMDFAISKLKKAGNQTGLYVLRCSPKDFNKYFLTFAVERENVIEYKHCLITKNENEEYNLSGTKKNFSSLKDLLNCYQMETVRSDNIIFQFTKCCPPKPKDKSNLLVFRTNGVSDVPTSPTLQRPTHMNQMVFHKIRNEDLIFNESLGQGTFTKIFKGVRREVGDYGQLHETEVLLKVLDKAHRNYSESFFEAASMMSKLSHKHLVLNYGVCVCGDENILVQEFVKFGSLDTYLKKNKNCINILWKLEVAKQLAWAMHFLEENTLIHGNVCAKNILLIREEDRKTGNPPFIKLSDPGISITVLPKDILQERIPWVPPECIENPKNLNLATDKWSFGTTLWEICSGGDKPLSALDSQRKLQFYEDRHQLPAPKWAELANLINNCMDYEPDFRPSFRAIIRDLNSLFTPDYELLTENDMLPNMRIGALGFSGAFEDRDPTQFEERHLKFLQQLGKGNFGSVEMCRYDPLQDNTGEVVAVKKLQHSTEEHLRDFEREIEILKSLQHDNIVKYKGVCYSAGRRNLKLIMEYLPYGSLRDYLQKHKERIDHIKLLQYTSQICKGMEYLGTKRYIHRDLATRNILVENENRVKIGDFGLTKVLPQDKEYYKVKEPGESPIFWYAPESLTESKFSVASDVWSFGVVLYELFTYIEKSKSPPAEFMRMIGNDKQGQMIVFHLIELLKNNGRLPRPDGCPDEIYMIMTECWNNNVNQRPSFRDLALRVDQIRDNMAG
T3 sequence (O60674 whole entry V617F): as the sequence (O60674 whole entry) above, with V617F counted along it
Chain of CYP2C9 (P11712 whole entry): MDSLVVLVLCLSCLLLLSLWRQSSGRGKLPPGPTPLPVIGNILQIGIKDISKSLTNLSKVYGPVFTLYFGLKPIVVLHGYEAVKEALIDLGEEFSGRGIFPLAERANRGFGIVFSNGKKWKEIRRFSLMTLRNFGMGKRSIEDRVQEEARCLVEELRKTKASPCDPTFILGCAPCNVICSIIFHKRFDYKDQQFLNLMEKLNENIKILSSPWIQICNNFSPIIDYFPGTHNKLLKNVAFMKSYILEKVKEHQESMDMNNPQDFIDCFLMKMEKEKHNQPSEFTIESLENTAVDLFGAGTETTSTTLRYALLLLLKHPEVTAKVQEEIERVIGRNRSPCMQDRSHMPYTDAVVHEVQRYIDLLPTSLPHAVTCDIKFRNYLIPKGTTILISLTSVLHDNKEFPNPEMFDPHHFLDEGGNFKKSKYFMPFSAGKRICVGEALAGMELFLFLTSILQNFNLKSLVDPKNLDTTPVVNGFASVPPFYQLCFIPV
Chain of Tyrosine-protein kinase JAK1 (P23458 whole entry): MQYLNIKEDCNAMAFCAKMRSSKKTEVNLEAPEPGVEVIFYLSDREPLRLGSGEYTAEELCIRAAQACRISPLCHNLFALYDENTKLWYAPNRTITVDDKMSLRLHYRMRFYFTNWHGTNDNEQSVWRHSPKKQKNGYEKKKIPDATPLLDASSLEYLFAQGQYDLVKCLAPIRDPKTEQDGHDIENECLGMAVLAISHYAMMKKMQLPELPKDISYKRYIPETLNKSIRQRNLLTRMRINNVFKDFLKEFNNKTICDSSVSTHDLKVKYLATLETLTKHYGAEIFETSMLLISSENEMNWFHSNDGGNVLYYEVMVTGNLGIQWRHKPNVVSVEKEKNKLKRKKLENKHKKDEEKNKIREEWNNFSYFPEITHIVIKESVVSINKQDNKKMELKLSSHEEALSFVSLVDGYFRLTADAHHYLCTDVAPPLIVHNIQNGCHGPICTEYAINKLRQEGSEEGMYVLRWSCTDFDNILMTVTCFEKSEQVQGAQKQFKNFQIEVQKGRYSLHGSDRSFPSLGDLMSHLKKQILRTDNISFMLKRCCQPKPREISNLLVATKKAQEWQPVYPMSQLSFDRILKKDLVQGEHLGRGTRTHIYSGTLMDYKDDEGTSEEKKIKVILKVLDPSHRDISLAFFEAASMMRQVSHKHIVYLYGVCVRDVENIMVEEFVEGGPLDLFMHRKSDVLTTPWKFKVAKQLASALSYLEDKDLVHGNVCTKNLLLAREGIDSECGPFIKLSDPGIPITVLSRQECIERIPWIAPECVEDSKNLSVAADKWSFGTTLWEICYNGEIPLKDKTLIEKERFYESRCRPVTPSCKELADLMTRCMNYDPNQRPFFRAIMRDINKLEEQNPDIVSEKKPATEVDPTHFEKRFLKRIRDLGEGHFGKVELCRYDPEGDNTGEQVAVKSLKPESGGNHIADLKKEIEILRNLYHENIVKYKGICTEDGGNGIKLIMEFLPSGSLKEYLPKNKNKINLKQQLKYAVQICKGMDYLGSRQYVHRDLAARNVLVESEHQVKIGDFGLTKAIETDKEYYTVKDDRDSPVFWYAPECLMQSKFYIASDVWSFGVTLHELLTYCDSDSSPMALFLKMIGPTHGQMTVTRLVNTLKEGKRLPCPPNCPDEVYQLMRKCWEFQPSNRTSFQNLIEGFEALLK
Chain of Non-receptor tyrosine-protein kinase TYK2 (P29597 whole entry): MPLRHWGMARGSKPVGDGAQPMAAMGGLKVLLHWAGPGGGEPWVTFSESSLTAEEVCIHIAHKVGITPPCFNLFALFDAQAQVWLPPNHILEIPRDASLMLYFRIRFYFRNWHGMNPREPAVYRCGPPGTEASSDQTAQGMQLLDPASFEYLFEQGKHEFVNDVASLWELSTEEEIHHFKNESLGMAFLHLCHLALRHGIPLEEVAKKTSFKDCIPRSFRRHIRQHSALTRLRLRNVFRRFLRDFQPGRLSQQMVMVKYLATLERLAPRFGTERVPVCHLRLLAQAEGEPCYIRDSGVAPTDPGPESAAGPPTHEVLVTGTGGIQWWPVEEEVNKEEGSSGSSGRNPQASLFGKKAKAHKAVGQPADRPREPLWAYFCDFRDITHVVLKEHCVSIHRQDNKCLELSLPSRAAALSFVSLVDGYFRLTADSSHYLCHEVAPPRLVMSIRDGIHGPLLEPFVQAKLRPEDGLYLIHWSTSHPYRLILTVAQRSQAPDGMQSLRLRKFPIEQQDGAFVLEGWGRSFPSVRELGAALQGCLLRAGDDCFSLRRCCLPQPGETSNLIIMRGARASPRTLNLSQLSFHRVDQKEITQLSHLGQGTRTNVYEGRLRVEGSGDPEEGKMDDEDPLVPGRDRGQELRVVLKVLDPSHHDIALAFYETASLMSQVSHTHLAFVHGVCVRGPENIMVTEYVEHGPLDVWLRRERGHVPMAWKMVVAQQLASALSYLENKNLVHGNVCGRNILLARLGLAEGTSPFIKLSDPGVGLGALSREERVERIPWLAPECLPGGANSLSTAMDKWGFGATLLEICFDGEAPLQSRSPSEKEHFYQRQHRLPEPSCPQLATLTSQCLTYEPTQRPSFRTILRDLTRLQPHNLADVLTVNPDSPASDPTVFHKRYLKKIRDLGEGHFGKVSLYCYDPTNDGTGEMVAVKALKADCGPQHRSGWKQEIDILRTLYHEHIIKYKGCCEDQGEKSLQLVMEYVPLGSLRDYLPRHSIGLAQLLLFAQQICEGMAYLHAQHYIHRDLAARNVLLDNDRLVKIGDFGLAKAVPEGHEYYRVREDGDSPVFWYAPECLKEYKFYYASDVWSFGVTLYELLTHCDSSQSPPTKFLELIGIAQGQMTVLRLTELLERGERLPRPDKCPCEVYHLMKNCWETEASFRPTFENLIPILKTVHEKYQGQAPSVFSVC
Chain of Cytochrome P450 3A4 (P08684 whole entry): as the sequence (P08684 whole entry) above
Chain of Cytochrome P450 2D6 (P10635 whole entry): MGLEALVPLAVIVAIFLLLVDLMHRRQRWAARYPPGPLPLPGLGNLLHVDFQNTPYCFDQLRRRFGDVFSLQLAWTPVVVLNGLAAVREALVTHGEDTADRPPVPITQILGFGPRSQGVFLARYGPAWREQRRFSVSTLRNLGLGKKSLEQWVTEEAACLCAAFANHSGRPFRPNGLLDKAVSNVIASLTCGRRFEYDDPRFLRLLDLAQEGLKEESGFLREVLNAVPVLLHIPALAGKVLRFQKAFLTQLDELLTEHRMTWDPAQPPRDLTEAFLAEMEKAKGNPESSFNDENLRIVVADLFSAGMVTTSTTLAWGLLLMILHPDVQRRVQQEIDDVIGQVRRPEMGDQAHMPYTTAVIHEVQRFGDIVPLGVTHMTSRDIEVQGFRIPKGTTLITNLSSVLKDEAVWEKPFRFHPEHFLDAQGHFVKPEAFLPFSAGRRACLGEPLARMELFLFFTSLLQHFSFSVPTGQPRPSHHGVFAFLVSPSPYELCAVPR

SMILES: C[C@H](Nc1ncc(C(N)=O)c2[nH]c3cc(-c4cnn(C)c4)ccc3c12)C(C)(C)C
- Ratio IC50 [1]: > 50
- pIC50 [2]: 4.54
- inhibition at 10 µM (CYP3A4): 49%
- half-life [3]: 0.25 h
- pIC50 [4]: 6.43
- pIC50 [5]: 8.30
- pIC50 [6]: 6.46

SMILES: NC(=O)c1cnc(N[C@H](C2CC2)C(F)(F)F)c2c1[nH]c1cc(-c3cnc(N)nc3)ccc12
- pIC50 [7]: 9.40
- pIC50 [8]: 7.96
- inhibition at 10 µM (CYP3A4): 30%
- half-life [9]: 4.5 h
- pIC50 [4]: 7.60
- clearance [10]: 0.42 L/h/kg
- inhibition at 10 µM (CYP2C9): 34%
- pIC50 [11]: < 5.00
- pIC50 [12]: < 4.52
- pIC50 [13]: < 4.52
- pIC50 (Cytochrome P450 3A4): < 4.12
- pIC50 (Cytochrome P450 2C9): < 4.12
- pIC50 (Cytochrome P450 2D6): < 4.12
- AUC/dose (Rattus norvegicus [14]): 5.3 µM·h/mg/kg
- clearance [15]: 0.444 L/h/kg
- Vd [16]: 2.5 L/kg
- AUC/dose (Canis familiaris [17]): 2.4 µM·h/mg/kg
- clearance [18]: 1.08 L/h/kg
- Vd [19]: 6.1 L/kg
- half-life [20]: 5.2 h
- AUC/dose (Rhesus monkey [21]): 5.2 µM·h/mg/kg
- clearance [22]: 0.444 L/h/kg
- Vd [23]: 4.7 L/kg
- half-life [24]: 7.3 h
- AUC/dose (Rattus norvegicus [25]): 3.4 µM·h/mg/kg
- Cmax [26]: 0.6 µM
- Tmax [27]: 6 h
- bioavailability [28]: 67%
- AUC/dose (Canis familiaris [29]): 2.5 µM·h/mg/kg
- Cmax [30]: 0.3 µM
- Tmax [31]: 5.1 h
- bioavailability [32]: 120%
- AUC/dose (Rhesus monkey [33]): 3.4 µM·h/mg/kg
- Cmax [34]: 0.2 µM
- Tmax [35]: 6 h
- bioavailability [36]: 66%
- pIC50 (Mus musculus [37]): 5.92
- Activity (Mus musculus [38]): Dose-dependent effect
- pIC50 [5]: 9.10
- Activity (Mus musculus [39]): Dose-dependent effect

SMILES: Cn1cc(-c2ccc3c(c2)[nH]c2c(C(N)=O)cnc(N[C@H](C4CC4)C(F)(F)F)c23)cn1
- inhibition at 10 µM (CYP3A4): 48%
- half-life [9]: 4.1 h
- bioavailability [40]: 65%
- pIC50 [4]: 7.39
- clearance [10]: 0.84 L/h/kg
- inhibition at 10 µM (CYP2C9): 66%
- pIC50 [5]: 9.40
- pIC50 [6]: 6.64

SMILES: O=c1[nH]ccc2c3[nH]c(-c4ccccc4Cl)nc3c3ccc(F)cc3c12
- pIC50 [41]: 8.70
- pIC50 [42]: 8.15
- pIC50 [43]: 8.52
- pIC50 [44]: 7.11
- Ratio IC50 [1]: 26
- clearance [45]: 0.324 L/h/kg
- bioavailability [46]: 100%
- logD [47]: 3.6
- solubility [48]: < 2 µM
